# Experimental data: patent EP4768480A1, “ALKOXY THIOPHENE ACYL ARYLAMINE COMPOUNDS AND USE THEREOF” (priority 2024, dated 2025)
# Experiments:
# dry eye mice [1] = assay: Ocular surface sodium fluorescein staining in dry eye mice; assay type: in vivo, male C57BL/6 experimental mice; settings: for corneal fluorescein sodium staining scores compared to cyclosporine eyedrops: 0.04% compound, comparison with cyclosporine eyedrops; for corneal fluorescein sodium staining scores compared to cyclosporine eyedrops / corneal fluorescein sodium staining scores: 5 µl per eye, twice daily, one week; for corneal fluorescein sodium staining scores: ocular surface, 0.04% compound or commercial cyclosporine eyedrops, versus carrier group; for area of corneal damage (sodium fluorescein staining photograph): compared to the carrier group, Figure 2
# Experimental: (§1) Experimental animals: male C57BL/6 experimental mice aged 6-8 weeks.
# (§2) Experimental reagents and consumables: phenol red cotton line, 1% sodium fluorescein solution, ? 0.05% cyclosporin eyedrops (II) from Xingqi Eyedrops Company, 0.
# (§3) At the end of 2 weeks, the dry eye mice were randomly divided into four groups, with 7 mice in each group.
# (§4) Each eye of every mouse received 5 µl of […] through ocular surface administration, twice daily. Another group of 7 male C57BL/6 experimental mice aged 6-8 weeks was kept in a thermostatic blast drying oven with controlled environmental humidity of 50% and temperature of 25°C, and received an empty carrier as a physiological control in the third week.
# (§5) All mice were evaluated for ocular surface damage recovery by ocular surface fluorescein sodium staining scores on the third weekend, and the tear secretion of mice was measured with phenol red surface lines. To be more specific, the phenol red surface line was placed in the conjunctival sac of a mouse in the anesthesia state for 30 seconds, and then the discoloration length of the phenol red surface line was measured. 2 µl of 1% sodium fluorescein solution was then administered through ocular surface, and photographs were taken under a cobalt blue lamp for scoring and statistics.
# dry eye mice [2] = assay: Tear secretion by phenol red cotton thread in dry eye mice; assay type: in vivo, male C57BL/6 experimental mice; settings: thread 30 seconds in conjunctival sac, compared to the vehicle group, Figure 3
# Experimental: as §1, §2, §3, §4, §5
# Aβ = Aβ (Homo sapiens, UniProt P05067); settings: literature value, Deepak et al., 2020; read-out: inhibiting the aggregation of Aβ, EC50; cited from earlier work
# SMS2 = biological target: T1, SMS2 (Homo sapiens, UniProt Q8NHU3); assay: SMS2 inhibitory activity in vitro, HPLC fluorescence quantitative detection (C6-NBD-ceramide to C6-NBD-SM); assay type: biochemical; settings: SMS2 pure enzyme, 37°C, 30 minutes, average of two measurements; for inhibition at 10 µM: 10 µM test compound, read-out: Inhibition rate on SMS2 at C/µM 10; for inhibition at 1 µM: 1 µM test compound, read-out: Inhibition rate on SMS2 at C/µM 1
# T1 construct: CAO, Yu research team, National Protein Scientific Center (Shanghai); supplied by an outside laboratory, not a commercial vendor
# T1 sequence (Q8NHU3 1-365): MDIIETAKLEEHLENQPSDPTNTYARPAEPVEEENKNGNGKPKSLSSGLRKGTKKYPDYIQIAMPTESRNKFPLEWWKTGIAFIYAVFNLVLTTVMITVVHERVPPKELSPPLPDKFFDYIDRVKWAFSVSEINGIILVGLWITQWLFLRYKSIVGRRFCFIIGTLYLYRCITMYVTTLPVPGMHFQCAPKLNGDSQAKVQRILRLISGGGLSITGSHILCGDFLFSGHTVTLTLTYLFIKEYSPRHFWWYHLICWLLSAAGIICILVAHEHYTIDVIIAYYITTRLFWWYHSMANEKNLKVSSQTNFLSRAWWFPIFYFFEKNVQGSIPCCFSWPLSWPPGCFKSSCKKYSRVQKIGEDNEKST
# Text: • 1. Electro-thermostatic water bath, from Shanghai Yiheng Technology Co., Ltd.); • 2. Vortex Mixer, with model ID of XW-80A, from Shanghai Jingke Industrial Co., Ltd.; • 3. […] High Performance Liquid Chromatography Agilent 1100, equipped with a quaternary pump, vacuum degassing, and FLD fluorescence detector, from Agilent Technologies, Palo Alto, CA, USA; • 5. HPLC column COSMOSIL 5C18-MS-II (4.6mm I.D. X 250mm); • 6. […] The organic solvents used in the present disclosure were purchased from Shanghai National Reagent Company, wherein methanol was pure chromatography; water was ultra-pure water which is filtrated by Milli-Q pump, deionized and ultra-filtrated with 0.22 µm membrane; and other biological consumables were purchased from domestic companies; • 8. Preparation of test compound solutions: each test compound was accurately weighed and dissolved in an appropriate volume of DMSO to prepare a 10 mmol/L stock solution. The stock solution was then diluted with an appropriate volume of DMSO to achieve the desired working concentration; • 9. SMS2 pure enzyme, DDM solution and buffer solution were provided by CAO, Yu research team from National Protein Scientific Center (Shanghai).
# 79 µl of the diluted enzyme solution were transferred into a 1.5 mL EP tube, 1 µl of inhibitor DMSO solution were added thereto, vortexing for 15 seconds, followed by standing at room temperature for 5 minutes. 20 µl of a mixed solution of DMPC and C6-NBD-ceramide were added, vortexing for 15 seconds, and incubated at 37°C for 30 minutes. 200 µl of anhydrous ethanol were added to quench the reaction, vortexing for 15 seconds. 200 µl of the reaction solution were taken out and stored at 4°C and avoided light for HPLC detection.
# The peak area values of A(sm) and A(ceramide) in the HPLC chromatogram corresponding to C6-NBD-SM and C6-NBD-Ceramide in the DMSO group and inhibitor group samples were analyzed and recorded, and the inhibition rate of the test compound was calculated according to the following formula. Inhibition rate = (Peak area values of DMSO group−Peak area values of Inhibitor group)/(Peak area values of DMSO group) × 100% [formula]
# Aβ, sequence (P05067 672-713 limits assumed): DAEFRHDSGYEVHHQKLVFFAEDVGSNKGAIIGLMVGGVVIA
Structure (SMILES),inhibition at 10 µM (SMS2) [%],inhibition at 1 µM (SMS2) [%],further results
"O=C(Nc1cccnc1)c1sccc1OCc1cc(F)ccc1Cl [1-2, 3-(2-chloro-5-fluorobenzyloxy)-N-(pyridin-3-yl)thiophene-2-carboxamide]",,,corneal fluorescein sodium staining scores compared to cyclosporine eyedrops (dry eye mice [1]): statistically significant advantages; corneal fluorescein sodium staining scores (dry eye mice [1]): reduction in corneal fluorescein sodium staining scores; area of corneal damage (sodium fluorescein staining photograph) (dry eye mice [1]): can reduce the area of corneal damage; tear secretion (discoloration length of phenol red cotton thread) (dry eye mice [2]): exhibited an increasing trend compared to the vehicle group
CC(C)=CCC/C(C)=C/CC[C@@]1(C)C=Cc2c(cc(C)c(C(=O)O)c2O)O1 [Daurichromonic acid],,,EC50 (Aβ): 57 µM
"CCCCCCCCOc1ccccc1COc1ccsc1C(=O)Nc1cccnc1 [1-31, 3-(2-(octyloxy)benzyloxy)-N-(pyridin-3-yl)thiophene-2-carboxamide]",,,corneal fluorescein sodium staining scores compared to cyclosporine eyedrops (dry eye mice [1]): statistically significant advantages; corneal fluorescein sodium staining scores (dry eye mice [1]): reduction in corneal fluorescein sodium staining scores; area of corneal damage (sodium fluorescein staining photograph) (dry eye mice [1]): can reduce the area of corneal damage; tear secretion (discoloration length of phenol red cotton thread) (dry eye mice [2]): exhibited an increasing trend compared to the vehicle group
"O=C(Nc1cc(Cl)ccn1)c1sccc1OCc1ccccc1 [1-6, 3-benzyloxy-N-(4-chloropyridin-2-yl)thiophene-2-carboxamide]",50,,
"N#Cc1ccc(COc2ccsc2C(=O)Nc2cccnc2)cc1 [1-52, 3-(4-cyanobenzyloxy)-N-(pyridin-3-yl)thiophene-2-carboxamide]",50,,
"O=C(Nc1cccnc1)c1sccc1OCC12CC3CC(CC(C3)C1)C2 [1-99, 3-(adamantan-1-ylmethoxy)-N-(pyridin-3-yl)thiophene-2-carboxamide]",62,,
"O=C(Nc1cccnc1)c1sccc1OCc1ccccc1I [1-87, 3-(yloxy)-N-(pyridin-3-yl)thiophene-2-carboxamide]",,82,
"O=C(Nc1cccnc1)c1sccc1OCc1c2ccccc2cc2ccccc12 [1-13, 3-(anthracen-9-ylmethoxy)-N-(pyridin-3-yl)thiophene-2-carboxamide]",,50,
O=C(Nc1ccncc1)c1sccc1OCc1ccccc1 [12-11],,7,
"COc1cccc(COc2ccsc2C(=O)Nc2cccnc2)c1 [1-58, 3-(3-methoxybenzyloxy)-N-(pyridin-3-yl)thiophene-2-carboxamide]",,70,
"CCCCCCOc1cc(Cl)ccc1COc1ccsc1C(=O)Nc1cccnc1 [1-71, 3-(4-chloro-2-(hexyloxy)benzyloxy)-N-(pyridin-3-yl)thiophene-2-carboxamide]",,95,
"Cc1ccc(F)cc1COc1ccsc1C(=O)Nc1cccnc1 [1-88, 3-(5-fluoro-2-methylbenzyloxy)-N-(pyridin-3-yl)thiophene-2-carboxamide]",,76,
"Cc1nc(OCc2ccccc2)c(C(=O)Nc2cccnc2)s1 [12-9, 4-(benzyloxy)-2-methyl-N-(pyridin-3-yl)thiazole-5-carboxamide]",,-2,
"O=C(Nc1cccnc1)c1sccc1OCc1cccc(F)c1 [1-45, 3-(3-fluorobenzyloxy)-N-(pyridin-3-yl)thiophene-2-carboxamide]",,67,
"O=C(Nc1ccccc1)c1sccc1OCc1ccccc1 [1-7, 3-benzyloxy-N-phenylthiophen-2-carboxamide]",50,,
"Cc1cncc(NC(=O)c2sccc2OCc2ccccc2)c1 [1-83, 3-benzyloxy-N-(5-methylpyridin-3-yl)thiophene-2-carboxamide]",50,,
"O=C(Nc1cccnc1)c1sccc1OCc1ccccc1OC(F)F [1-85, 3-(2-difluoro-methoxybenzyloxy)-N-(pyridin-3-yl)thiophene-2-carboxamide]",,73,
"O=C(Nc1cccnc1)c1sccc1OCc1cccc2ccccc12 [1-10, 3-(naphthalen-1-ylmethoxy)-N-(pyridin-3-yl)thiophene-2-carboxamide]",,86,
O=C(Nc1cccnc1)c1nccnc1OCc1ccccc1 [12-20],16,,
"O=C(Nc1cccnc1)c1sccc1OCc1cccs1 [1-77, 3-(thiophen-2-ylmethoxy)-N-(pyridin-3-yl)thiophene-2-carboxamide]",65,,
"Cc1cccc(C)c1COc1ccsc1C(=O)Nc1cccnc1 [1-60, 3-(2,6-dimethylbenzyloxy)-N-(pyridin-3-yl)thiophene-2-carboxamide]",,78,
"O=C(Nc1cccnc1)c1scc(Br)c1OCc1ccccc1 [1-15, 3-benzyloxy-4-bromo-N-(pyridin-3-yl)thiophene-2-carboxamide]",53,,
"CN(C(=O)c1sccc1OCc1ccccc1)c1cccnc1 [1-62, 3-benzyloxy-N-methyl-(pyridin-3-yl)thiophene-2-carboxamide]",57,,
